Reference: US20160324174A1, “EDIBLE COATING FOR PRESERVING PIECES OF FRUIT, PRODUCTION METHOD AND APPLICATION THEREOF” (PRODUCTION AND INNOVATION ON EDIBLE COATINGS, S.L., priority 2014, published 2016)

System: pieces of apple (Golden delicious)
Assay: Sensory evaluation of coated pieces of apple during 15 days storage at 4° C.
Conditions: for Hydration: scale 1 to 10, 10 = complete hydration of the product surface; for Texture: scale 1 to 10, 10 = firm crisp texture; for Color: sensory scale 1 to 10, 10 = total absence of browning
Method: Apples of the Golden delicious variety were used. They were washed on the surface and disinfected by immersion in a sodium hypochlorite (80 ppm) solution. After disinfection, the apples were cored and cut manually into […] (quarters), which were immediately coated. […] In any of the cases, the components were dissolved in water, by constant stirring, until completely dissolved, the temperature of both the water and of the solution being held at 6° C. until their use as coating. The pieces of apple were immersed for 1 minute in each of the solutions. In the case of the control sample, the pieces of apple were immersed in cold water for the same period of time. After this, the samples were drained for 1 minute in order to remove any excess coating that might remain on the surface of the fruit. Finally, the fruit was manually packaged in plastic tubs (PET), without the use of a modified atmosphere, and stored at 4° C. for 15 days. […] The scale of evaluation was from 1 to 10, 10 being the highest mark awarded to the parameter evaluated, namely, a product with the same quality as the freshly cut fruit, and 1 being a very bad quality product (rejectable).

[1] = apple pieces, day 1 in storage at 4° C.
[2] = apple pieces, day 8 in storage at 4° C.
[3] = apple pieces, day 15 in storage at 4° C.

calcium ascorbate [Calcium ascorbate (6% p/p)]
appearance of first symptoms of dehydration (apple pieces in storage at 4° C.): from the first week of storage | maintenance of the original color of the apple (apple pieces, 15 days storage at 4° C.): throughout almost all of the period of storage | General appearance [1]: Good | Hydration [1]: 10 | Texture [1]: 10 | Color [1]: 10 | General appearance [2]: Dehydrated | Hydration [2]: 5 | Texture [2]: 8 | Color [2]: 9 | General appearance [3]: Very dehydrated, | Hydration [3]: 4 | Texture [3]: 7 | Color [3]: 8
